Columns and labels:
Cyclooxygenase = molecular target: T1, Cyclooxygenase (Bos taurus, UniProt O62664+O62698)
T1 sequence (O62664 whole entry): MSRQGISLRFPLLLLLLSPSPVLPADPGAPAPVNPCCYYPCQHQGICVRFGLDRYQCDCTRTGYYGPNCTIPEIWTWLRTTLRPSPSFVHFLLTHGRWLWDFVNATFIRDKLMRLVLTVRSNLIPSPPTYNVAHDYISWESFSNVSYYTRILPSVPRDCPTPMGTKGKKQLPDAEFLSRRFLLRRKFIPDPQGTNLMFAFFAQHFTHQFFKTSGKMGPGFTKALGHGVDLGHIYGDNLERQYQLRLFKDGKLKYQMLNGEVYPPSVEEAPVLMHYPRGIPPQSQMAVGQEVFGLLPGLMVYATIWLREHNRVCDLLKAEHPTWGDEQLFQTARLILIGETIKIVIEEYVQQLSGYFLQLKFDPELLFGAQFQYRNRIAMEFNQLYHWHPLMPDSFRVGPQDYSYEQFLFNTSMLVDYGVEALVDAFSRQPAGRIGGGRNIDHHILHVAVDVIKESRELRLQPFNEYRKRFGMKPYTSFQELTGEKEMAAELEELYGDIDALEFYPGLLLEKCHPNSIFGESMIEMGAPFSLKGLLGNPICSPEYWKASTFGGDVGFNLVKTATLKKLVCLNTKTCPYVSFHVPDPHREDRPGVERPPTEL
T1 sequence (O62698 whole entry): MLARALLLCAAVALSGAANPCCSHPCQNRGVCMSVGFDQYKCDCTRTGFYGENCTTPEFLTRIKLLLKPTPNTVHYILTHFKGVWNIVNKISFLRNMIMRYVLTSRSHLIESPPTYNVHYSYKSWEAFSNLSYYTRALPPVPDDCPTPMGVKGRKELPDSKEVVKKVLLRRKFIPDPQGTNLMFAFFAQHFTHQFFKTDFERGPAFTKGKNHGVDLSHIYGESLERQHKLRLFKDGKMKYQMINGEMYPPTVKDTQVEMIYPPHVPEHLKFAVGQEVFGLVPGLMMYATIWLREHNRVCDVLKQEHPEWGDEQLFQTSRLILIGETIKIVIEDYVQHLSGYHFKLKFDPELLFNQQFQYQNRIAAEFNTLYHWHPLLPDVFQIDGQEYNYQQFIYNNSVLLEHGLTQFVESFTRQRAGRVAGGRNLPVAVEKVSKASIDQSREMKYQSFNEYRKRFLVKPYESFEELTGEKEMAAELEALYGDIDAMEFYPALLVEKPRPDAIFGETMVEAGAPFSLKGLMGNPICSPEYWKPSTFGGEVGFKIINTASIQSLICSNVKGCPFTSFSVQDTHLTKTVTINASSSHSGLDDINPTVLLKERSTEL
Description: In vitro inhibition of bovine prostaglandin G/H synthase, using bovine seminal vesicle microsomal preparations; IC50 in umol/L

[1] = Dissociation constant (pKa); type: physicochemical
[2] = Partition coefficient (logD7.4); details: octanol/water, pH 7.4

Description for Rattus norvegicus: Inhibition of inflammatory hind paw edema, induced by Mycobacterium butyricum in rats; ED40 in umol/kg po

O=C(O)Cc1ccccc1Nc1cccc(Cl)c1Cl
log IC50 (Cyclooxygenase): 1
pKa [1]: 4.2
logD [2]: 1.66

O=C([O-])Cc1ccccc1Nc1c(Cl)cccc1Br.[Na+]
log IC50 (Cyclooxygenase): 0.28
pKa [1]: 4.2
logD [2]: 1.44
Log 1/ED40 (Rattus norvegicus): -0.14

Cc1cc(C)c(C)c(Nc2ccccc2CC(=O)O)c1C
log IC50 (Cyclooxygenase): 0.78
pKa [1]: 4.2
logD [2]: 1.95
Log 1/ED40 (Rattus norvegicus): -1.25

Cc1cccc(Nc2ccccc2CC(=O)O)c1C
log IC50 (Cyclooxygenase): 0.3
logD [2]: 1.03
Log 1/ED40 (Rattus norvegicus): -1.59

O=C(O)Cc1ccccc1Nc1cc(Cl)cc(Cl)c1
log IC50 (Cyclooxygenase): 1.9
pKa [1]: 4.31
logD [2]: 1.98
Log 1/ED40 (Rattus norvegicus): -2.23

O=C(O)Cc1ccccc1Nc1ccc(Cl)cc1Cl
log IC50 (Cyclooxygenase): 1.85
logD [2]: 1.33
Log 1/ED40 (Rattus norvegicus): -1.23

Cc1cccc(Nc2ccccc2CC(=O)O)c1Cl
log IC50 (Cyclooxygenase): 1.3
logD [2]: 1.59
Log 1/ED40 (Rattus norvegicus): -0.26

O=C([O-])Cc1ccccc1Nc1c(F)cccc1F.[Na+]
log IC50 (Cyclooxygenase): 2.36
pKa [1]: 4.09
logD [2]: 0.26
Log 1/ED40 (Rattus norvegicus): -2.24

COc1cc(Cl)c(Nc2ccccc2CC(=O)O)c(Cl)c1
log IC50 (Cyclooxygenase): 0
pKa [1]: 4.2
logD [2]: 1.24
Log 1/ED40 (Rattus norvegicus): -0.49

Cc1cc(C)c(C)c(Nc2ccc(Cl)cc2CC(=O)O)c1C
log IC50 (Cyclooxygenase): 1.82
logD [2]: 2.93
Log 1/ED40 (Rattus norvegicus): -1.2

Cc1ccc(Cl)c(Nc2ccccc2CC(=O)[O-])c1Cl.[Na+]
Log 1/ED40 (Rattus norvegicus): -0.65

O=C([O-])Cc1ccccc1Nc1c(Cl)cc(F)cc1Cl.[Na+]
log IC50 (Cyclooxygenase): 0.05
logD [2]: 1.27
Log 1/ED40 (Rattus norvegicus): -0.47

COc1c(O)cc(Cl)c(Nc2ccccc2CC(=O)O)c1Cl
log IC50 (Cyclooxygenase): 1.86
logD [2]: 0.51
Log 1/ED40 (Rattus norvegicus): -2.47

Cc1cccc(Cl)c1Nc1ccccc1CC(=O)O
log IC50 (Cyclooxygenase): 0
pKa [1]: 4.2
logD [2]: 1.17
Log 1/ED40 (Rattus norvegicus): -0.74

CCc1cccc(CC)c1Nc1ccccc1CC(=O)O
log IC50 (Cyclooxygenase): 1.83
logD [2]: 1.91
Log 1/ED40 (Rattus norvegicus): -1.55

Cc1cccc(C)c1Nc1ccccc1CC(=O)O
log IC50 (Cyclooxygenase): 0.78
pKa [1]: 4.07
logD [2]: 1.21
Log 1/ED40 (Rattus norvegicus): -0.29

COc1ccc(Cl)c(Nc2ccccc2CC(=O)O)c1Cl
log IC50 (Cyclooxygenase): 1.04
pKa [1]: 3.95
logD [2]: 1.18
Log 1/ED40 (Rattus norvegicus): -0.96

O=C(O)Cc1ccccc1Nc1c(Cl)cccc1I
log IC50 (Cyclooxygenase): 0.3
pKa [1]: 4.24
logD [2]: 1.64
Log 1/ED40 (Rattus norvegicus): -0.11

O=C(O)Cc1ccccc1Nc1ccc(Cl)c(Cl)c1
log IC50 (Cyclooxygenase): 2.15
pKa [1]: 4.3
logD [2]: 1.8
Log 1/ED40 (Rattus norvegicus): -2.53

O=C([O-])Cc1ccccc1Nc1c(F)cccc1Cl.[Na+]
log IC50 (Cyclooxygenase): 1.75
logD [2]: 0.56
Log 1/ED40 (Rattus norvegicus): -0.8

O=C([O-])Cc1cc(F)ccc1Nc1c(Cl)cccc1Cl.[Na+]
log IC50 (Cyclooxygenase): 0.13
pKa [1]: 4.02
logD [2]: 1.48
Log 1/ED40 (Rattus norvegicus): 0.05

O=C([O-])Cc1cc(Cl)ccc1Nc1c(Cl)cccc1Cl.[Na+]
log IC50 (Cyclooxygenase): 0.1
logD [2]: 1.97
Log 1/ED40 (Rattus norvegicus): 0.07

O=C([O-])Cc1ccccc1Nc1ccc(F)cc1F.[Na+]
log IC50 (Cyclooxygenase): 2.01
logD [2]: 0.55
Log 1/ED40 (Rattus norvegicus): -2.85

Cc1c(Cl)cccc1Nc1ccccc1CC(=O)O
log IC50 (Cyclooxygenase): 1.04
pKa [1]: 4.3
logD [2]: 1.54
Log 1/ED40 (Rattus norvegicus): -0.86

O=C(O)Cc1c(Br)cccc1Nc1c(Cl)cccc1Cl
log IC50 (Cyclooxygenase): 1.18
logD [2]: 1.87
Log 1/ED40 (Rattus norvegicus): -3.43

O=C(O)Cc1ccccc1Nc1ccccc1Cl
log IC50 (Cyclooxygenase): 2.31
logD [2]: 0.91
Log 1/ED40 (Rattus norvegicus): -1.76

O=C([O-])Cc1c(O)cccc1Nc1c(Cl)cccc1Cl.[Na+]
log IC50 (Cyclooxygenase): 2.33
pKa [1]: 4.48
logD [2]: 1.73

O=C([O-])Cc1cc(F)ccc1Nc1c(Cl)cc(F)cc1Cl.[Na+]
log IC50 (Cyclooxygenase): 0.25
logD [2]: 1.62
Log 1/ED40 (Rattus norvegicus): 0.25

O=C(O)Cc1ccccc1Nc1cc(Cl)ccc1Cl
log IC50 (Cyclooxygenase): 2
pKa [1]: 4.1
logD [2]: 1.64
Log 1/ED40 (Rattus norvegicus): -1.01

O=C(O)Cc1ccccc1Nc1ccccc1
log IC50 (Cyclooxygenase): 2.46
pKa [1]: 4.1
logD [2]: 0.19
Log 1/ED40 (Rattus norvegicus): -2.94

COc1cc(Cl)c(Nc2ccccc2CC(=O)O)c(Cl)c1O [3'-HYDROXY-4'-METHOXY-DICLOFENAC]
log IC50 (Cyclooxygenase): 2.47
pKa [1]: 4.13
logD [2]: 0.25
Log 1/ED40 (Rattus norvegicus): -2.47

O=C(O)Cc1ccccc1Nc1c(Cl)ccc(O)c1Cl [3'-HYDROXY-DICLOFENAC]
log IC50 (Cyclooxygenase): 1
logD [2]: 0.72
Log 1/ED40 (Rattus norvegicus): -1.51

O=C(O)Cc1cc(O)ccc1Nc1c(Cl)cc(O)cc1Cl [4',5-DIHYDROXY-DICLOFENAC]
log IC50 (Cyclooxygenase): 3.04
logD [2]: 0.27
Log 1/ED40 (Rattus norvegicus): -2.78

O=C(O)Cc1ccccc1Nc1c(Cl)cc(O)cc1Cl [4'-HYDROXY-DICLOFENAC]
log IC50 (Cyclooxygenase): 2.15
pKa [1]: 4.4
logD [2]: 0.7
Log 1/ED40 (Rattus norvegicus): -0.98

O=C(O)Cc1cc(O)ccc1Nc1c(Cl)cccc1Cl [5-HYDROXY-DICLOFENAC]
log IC50 (Cyclooxygenase): 3.35
pKa [1]: 4.22
logD [2]: 0.76
Log 1/ED40 (Rattus norvegicus): -0.98

COc1ccc2c(c1)c(CC(=O)O)c(C)n2C(=O)c1ccc(Cl)cc1 [INDOMETHACIN]
logD [2]: 1
